In US20240417773A1 (priority 2022, published 2024):
Read-outs that look alike come from different tables or passages of the source.

How the values were obtained:
[1] = system: spores of the Bacillus atrophaeus; conditions: 50° C., 1.74 mg/L; for Observation result: excitation 365 nm
Description: A bacterial carrier on each indicator includes about 106 spores of the Bacillus atrophaeus. The six indicators are divided into three groups, each of which has two indicators. […] A treatment for 0 sec at 50° C. means that no treatment is performed, and is a control group; a treatment for 20 sec at 50° C. simulates a condition of incomplete sterilization; and treatment for 60 sec at 50° C. simulates a condition of successful sterilization where all the spores are supposed to be skilled theoretically. An exposure position of the indicator is located at a cold spot of a sterilization device. A sample subjected to the sterilization treatment is transferred onto a bechtop. Bacteria strips included in the biological indicators in the three groups after the sterilization treatment are taken out by means of sterilized tweezers, put in a sterile centrifuge tube, added with an appropriate quantity of sterile recovered liquid (0.1% polysorbate 80, and 0.03 M phosphate buffer liquid with pH being 7.2), fully oscillated and crushed. Afterwards, the centrifuge tube is put in an ice-bath for cooling.
Then, a sample in the centrifuge tube is subjected to centrifugation (a centrifugal force being 2000×g, a temperature being 4° C. and a centrifugation duration being 20 min), an obtained supernatant passes through a 10 μm millipore filter (a spore diameter is 1 μm to 2 μm, so in order to make the spores pass through the filter and the bacteria strip slags are blocked, a filter of 2 μm or above is needed), so as to obtain filtrate.
An appropriate amount of sterile recovered liquid is added into filtered slags (a main component is a crushed bacteria strip fiber) obtained after the above centrifugal filtration, after oscillating and shaking well, the above centrifugal filtration process is repeated, filtrate including thermal-damaged spores is further recovered, repetition is performed for 2 to 3 times like this, and the filtrate obtained by each centrifugal filtration is gathered as the spore suspension.
(§1) One drop of the liquid medium (30 g/L agar and 15 g/L tryptic soy broth) subjected to high-temperature sterilization is dropwise added onto an object slide, after this drop of the liquid medium is solidified, one drop of the 4-MUG with a concentration being 210 mg/L is dropwise added onto the solid medium, and a moment later, the 4-MUG fully infiltrates into the solid medium.
(§2) One drop of the spore suspension (including the thermal-damaged spores) is dropwise added onto the solid medium.
The number and sizes of fluorescent spots are observed under the observation system. […]

[2] = system: spore strips produced by Xinhua Mesa®Strip; conditions: 50° C., 1.74 mg/L; for Observation result: excitation 365 nm
Description: This embodiment selects six spore strips produced by Xinhua Mesa®Strip, which are divided into three groups and each group has two strips. […] A treatment for 0 sec at 50° C. means that no treatment is performed, and is a control group; a treatment for 20 sec at 50° C. simulates a condition of incomplete sterilization; and treatment for 60 sec at 50° C. simulates a condition of successful sterilization where all the spores are supposed to be skilled theoretically. An exposure position of the indicator is located at a cold spot of a sterilization device. A sample subjected to the sterilization treatment is transferred onto a bechtop. Bacteria strips included in the biological indicators in the three groups after the sterilization treatment are taken out by means of sterilized tweezers, put in a sterile centrifuge tube, added with an appropriate amount of sterile recovered liquid (0.1% polysorbate 80, and 0.03 M phosphate buffer liquid with pH being 7.2), fully oscillated and crushed. Afterwards, the centrifuge tube is put in an ice-bath for cooling.
as §1, §2
The number and sizes of fluorescent spots are observed under the observation system. The observation system is composed of four parts: 1) a stereoscopic microscope (a brand model may be: Nikon SMZ800); 2) a time gating camera (a brand model may be: Photonics Research Systems, Salford, UK) mounted on the above stereoscopic microscope; 3) a xenon flash lamp (a brand model may be: PerkinElmer, Waltham, MA) forming a 45° angle relative to a sample; and 4) a temperature-controlled microscope object slide stand (a brand model may be: Thermal).
Parameters set for the observation system are as follows: the xenon flash lamp has an excitation wavelength of 365 nm and an excitation slit width of 10 nm. Observed by the stereoscopic microscope, an emission wavelength is 544 nm, and an emission slit is 10 nm.

OO [hydrogen peroxide]
Conclusion ([1]; 20 sec): Incomplete
Observation result ([1]; 20 sec): A certain quantity of scattered
Conclusion ([1]; 60 sec): Complete
Observation result ([1]; 60 sec): No fluorescent spot
Conclusion ([2]; 20 sec): Incomplete
Observation result ([2]; 20 sec): A certain quantity of scattered
Conclusion ([2]; 60 sec): Complete
Observation result ([2]; 60 sec): No fluorescent spot
